The values that follow are results of earlier work, collected in patent US12594238B2, “Low hygroscopicity active powder compositions” (PHILIP MORRIS PRODUCTS S.A., priority 2020, dated 2026).

The conditions of this data set: at 25° C.

Consider `OC[C@H]1O[C@H](O[C@H]2O[C@H](CO)[C@@H](O)[C@H](O)[C@H]2O)[C@H](O)[C@@H](O)[C@@H]1O` [trehalose], for which the solubility was 69 g/100 ml water.
